In one assay the target is T1, Human recombinant MMP-3 (Homo sapiens, UniProt P08254).
T1 construct: host or cells: E. coli
The experiment in a line: Protease counter-screening: MMP-3. Type of assay: biochemical. The procedure:
(§1) Appendix 7. Protease Counter -Screening
(§2) Protease counter-screeni ng was performed using the methods described below. Initial screening was conducted in duplicate using a single test substance concentration of 10 µ M .
(§3) Additional assays were conducted in replicate for selected pairin gs of test s ubstance and enz yme in order to enable the determination of IC50 values using conventional procedures.
(§4) Determination of K i was made using the Batch K i program (Biokin Ltd, Pullman, WA) to derive values from the Morrison equation: […]
Where [E ] is the active enz yme concentration, Kiapp is the apparent inhibition const ant, v 0 is the control velocit y in the absence of inhibitors, vb is the background velocity, v is the initial reaction velocit y in the presence of inhibitor, and I is the inhibitor concentration.Thence:
Where [S ] is the substrate concentration and KM is the Michealis constant. […]
Test compound or vehicle was pre- incubated with 600 […]
The reaction was […]
initiated by addition of 1 µM N-CH3-SO2-D-FGR-pNA for another 120 min incubation period. […]
Matrix metalloprotease-3 (MMP-3 ): Human recombinant MMP-3 proenz yme expressed in E. coli was activated with 4-aminophen yl mercuric acetate (APMA) for 60 min at 37 °C. […] The amount of MCA-PLG formed was read spectrofluorimetricall y at 340 nm/400 nm.
(Counterscreens check selectivity or assay interference.)

Assay [1] relates to nonsensitized rats challenged with a natural mixture of HDM allergens. The note with it: i.t. aerosol typically 60-360 min prior to allergen challenge, unsensitised BN rats.
Assay [2] concerns the target T2, Human recombinant ADAM-17 (Homo sapiens, UniProt P78536).
T2 construct: host or cells: Sf21 insect cells
The experiment in a line: Protease counter-screening: ADAM-17/TACE. In kind it is biochemical. The procedure:
as §1, §2, §3, §4
MMP-9: Human recombinant MMP-9 proenz yme ex pressed in mammalian cells was activated with APMA for 60 min at 37 °C. […] The amount of MCA-P LG formed was read spectrofluorimetricall y at 340 nm/400 nm.
ADAM-17/TACE: Human recombinant ADAM-17 expressed in Sf21 insect cells was used as enz yme sour ce. […] T he amount of MCA-P LAQA formed w as read spectro fluorimetricall y at 340 nm/400 nm.
Angiotensin converting enzyme: Test compound or vehicle was pre- incubated in modified HEPES buffer pH 7.5 for 15 min at 25 °C with 31 mU/mL angiotensin converting enz yme from rabbit lung. […] The amount of substrate remaining was read spectrophotometricall y at 340 nm and used to deri ve the extent of reaction and its inhibition. […]

We go through one molecule from PMC4257840 (Journal of Medicinal Chemistry, 2014).

T1 sequence (P08254 100-477): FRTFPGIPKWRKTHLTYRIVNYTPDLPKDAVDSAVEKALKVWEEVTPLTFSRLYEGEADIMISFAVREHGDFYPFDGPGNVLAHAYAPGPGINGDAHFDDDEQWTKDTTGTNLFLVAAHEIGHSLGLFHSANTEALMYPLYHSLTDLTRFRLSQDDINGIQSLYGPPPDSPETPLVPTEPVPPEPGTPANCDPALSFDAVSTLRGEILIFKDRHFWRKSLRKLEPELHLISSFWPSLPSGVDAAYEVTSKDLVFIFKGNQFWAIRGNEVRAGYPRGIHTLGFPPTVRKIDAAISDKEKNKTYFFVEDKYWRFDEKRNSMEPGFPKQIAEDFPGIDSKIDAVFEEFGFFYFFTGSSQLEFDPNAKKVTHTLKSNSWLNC
T2 sequence (P78536 215-824): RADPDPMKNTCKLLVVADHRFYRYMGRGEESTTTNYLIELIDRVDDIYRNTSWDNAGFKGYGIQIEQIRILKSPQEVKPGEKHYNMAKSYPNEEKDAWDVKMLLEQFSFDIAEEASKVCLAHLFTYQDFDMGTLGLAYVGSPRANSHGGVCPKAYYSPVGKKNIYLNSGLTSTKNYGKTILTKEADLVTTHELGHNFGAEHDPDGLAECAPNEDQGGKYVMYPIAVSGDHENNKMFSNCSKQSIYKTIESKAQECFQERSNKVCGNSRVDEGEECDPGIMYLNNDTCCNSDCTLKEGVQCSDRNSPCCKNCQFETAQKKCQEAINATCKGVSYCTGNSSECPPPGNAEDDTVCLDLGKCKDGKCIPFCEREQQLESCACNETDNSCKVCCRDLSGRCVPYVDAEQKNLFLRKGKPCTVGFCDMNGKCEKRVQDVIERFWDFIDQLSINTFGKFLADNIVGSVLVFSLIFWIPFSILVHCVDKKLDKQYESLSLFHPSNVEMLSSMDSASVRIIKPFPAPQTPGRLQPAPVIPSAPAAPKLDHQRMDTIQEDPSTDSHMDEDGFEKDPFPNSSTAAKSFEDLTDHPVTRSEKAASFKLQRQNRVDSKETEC

As to `CC(C)[C@H](NC(=O)[C@H](C)NC(=O)[C@@H](NC(=O)c1ccccc1)C(C)(C)C)C(=O)C(=O)NCc1ccccc1` [Compound 38, N-{(S)-1-[(S)-1-((S)-1-Benzylaminooxalyl-2-methyl-propylcarbamoyl)-ethylcarbamoyl]-2,2-dimethyl-propyl}-benzamide], the inhibition at 10 µM (on Human recombinant MMP-3; in assay [2]) was 0% in each case. In addition, the “duration of protection: trend of inhibition of eosinophil recruitment with increasing pre-treatment interval” value in assay [1] is “rise to well-maintained”.

In general, inhibition refers to how much of the control response was suppressed.
